This note sets out measurements from patent US11767341B2, “Lincosamide antibiotics and uses thereof” (President and Fellows of Harvard College, priority 2017, dated 2023).

What all share (assay): MIC determination
Type in all cases: cell-based

One experiment has as its system E. coli ATCC 25922. To be noted: Escherichia coli.
In another experiment the test system is S. pneumoniae ATCC 49619. To be noted: Streptococcus pneumoniae, ATCC49619; S. pneumoniae ATCC 49619; read-out: MIC.
The next experiment has as its system E. faecalis ATCC 29212. As to conditions: Enterococcus faecalis.
A further experiment concerns S. pyogenes ATCC 19615. To be noted: Streptococcus pyogenes, ATCC19615; S. pyogenes ATCC 19615; read-out: MIC.
The test system of the next experiment is S. aureus ATCC 29213. To be noted: Staphylococcus aureus, ATCC29213, S. aureus ATCC 29213; read-out: MIC.
The subject of experiment [1] is E. coli MP-74 LptD mutant. As to conditions: Escherichia coli.
In a further experiment the test system is E. coli MP-9 ΔTolC. To be noted: Escherichia coli.
A further experiment has as its system H. influenzae ATCC 49247. As to conditions: Haemophilus influenzae, ATCC49247.
Experiment [2] deals with S. aureus MP-549 msr(a) USA 300. To be noted: Staphylococcus aureus, USA300, S. aureus MP-549 msr(a) USA 300.
A further experiment relates to K. pneumoniae ATCC 10031. To be noted: Klebsiella pneumoniae, ATCC10031.
In the next experiment the test system is S. aureus BAA 977 iErmA. To be noted: Staphylococcus aureus, BAA977.
Setting [3] is: ATCC25922, E. coli ATCC 25922, read-out: MIC.
The mark [4] stands for this setting: H. influenzae ATCC 49247, read-out: MIC.
The mark [5] stands for this setting: K. pneumoniae ATCC 10031, read-out: MIC.

Structures are written as SMILES. In brackets after ≈: the same amount, converted by molar mass. Read-outs that look alike come from different tables or passages of the source. Some results are limits rather than exact numbers.

With `CSC1O[C@H]([C@H](NC(=O)[C@@H]2[C@@H]3OCC=CC[C@H]3CN2C2CC2)[C@H](C)Sc2ccc(-c3cccnc3)cc2)C(O)C(O)[C@H]1O` (stereo partly shown) [FSA-214009a], the MIC in the experiment with E. coli ATCC 25922 (setting [3]) was more than 64 µg/mL; with S. pneumoniae ATCC 49619 it was 4 µg/mL (≈ 6.37 µM); in the experiment with E. faecalis ATCC 29212 (ATCC29212, read-out: MIC), more than 64 µg/mL; with S. pyogenes ATCC 19615, 4 µg/mL (≈ 6.37 µM); with S. aureus ATCC 29213, 64 µg/mL (≈ 102 µM).

Regarding `CCOC(=O)CCN1C[C@@H]2CC=CCO[C@H]2[C@H]1C(=O)N[C@H]([C@H](C)Sc1ccc(-c2cccnc2)cc1)[C@H]1OC(SC)[C@H](O)[C@H](O)C1O` (stereo partly shown) [FSA-214009b], the MIC was more than 64 µg/mL in the experiment on E. coli ATCC 25922 (setting [3]); 32 µg/mL (≈ 46.5 µM) in the experiment with S. pneumoniae ATCC 49619; more than 64 µg/mL in the experiment with E. faecalis ATCC 29212 (ATCC29212, read-out: MIC); 8 µg/mL (≈ 11.6 µM) in the experiment with S. pyogenes ATCC 19615; more than 64 µg/mL in the experiment with S. aureus ATCC 29213.

As for `CSC1O[C@H]([C@H](NC(=O)[C@H]2NC[C@@H]3CC=CCO[C@@H]32)[C@H](C)Cl)C(O)[C@@H](O)[C@H]1O` (stereo partly shown) [FSA-504059], the MIC in experiment [1] is more than 64 µg/mL; with E. coli ATCC 25922 (ATCC25922), more than 64 µg/mL; in the experiment on S. pneumoniae ATCC 49619, 0.25 µg/mL (≈ 0.572 µM); with E. coli MP-9 ΔTolC it was more than 64 µg/mL; with H. influenzae ATCC 49247, more than 64 µg/mL; in [2], 2 µg/mL (≈ 4.58 µM). Besides, the MIC is 32 µg/mL (≈ 73.2 µM) with E. faecalis ATCC 29212 (ATCC29212), 0.12 µg/mL (≈ 0.275 µM) in the experiment with S. pyogenes ATCC 19615, more than 64 µg/mL in the experiment with K. pneumoniae ATCC 10031 and 2 µg/mL (≈ 4.58 µM) in the experiment with S. aureus ATCC 29213.

Consider `CSC1O[C@H]([C@H](NC(=O)[C@H]2NC[C@@H]3CCCCO[C@@H]32)[C@H](C)Cl)C(O)[C@@H](O)[C@H]1O` (stereo partly shown) [FSA-504062], for which the MIC was more than 64 µg/mL in experiment [1]; more than 64 µg/mL with E. coli ATCC 25922 (ATCC25922); 0.25 µg/mL (≈ 0.57 µM) with S. pneumoniae ATCC 49619; more than 64 µg/mL in the experiment with E. coli MP-9 ΔTolC; more than 64 µg/mL with H. influenzae ATCC 49247; 1 µg/mL (≈ 2.28 µM) in [2]. The MIC with E. faecalis ATCC 29212 (ATCC29212, read-out: MIC) is 32 µg/mL (≈ 72.9 µM); in the experiment on S. pyogenes ATCC 19615, 0.12 µg/mL (≈ 0.273 µM); in the experiment on K. pneumoniae ATCC 10031 it was more than 64 µg/mL; in the experiment on S. aureus ATCC 29213, 2 µg/mL (≈ 4.56 µM).

As for `CSC1O[C@H]([C@H](NC(=O)[C@H]2NC[C@@H]3CC(c4ccc(-c5ccccc5)cc4)=CCO[C@H]32)[C@H](C)Cl)C(O)[C@@H](O)[C@H]1O` (stereo partly shown) [FSA-510001], the MIC is 8 µg/mL (≈ 13.6 µM) in [1]; more than 64 µg/mL against E. coli ATCC 25922 (ATCC25922); 4 µg/mL (≈ 6.79 µM) in the experiment with S. pneumoniae ATCC 49619; more than 64 µg/mL with E. coli MP-9 ΔTolC; 16 µg/mL (≈ 27.2 µM) with H. influenzae ATCC 49247 (setting [4]); 8 µg/mL (≈ 13.6 µM) against E. faecalis ATCC 29212 (ATCC29212). Also, the MIC in the experiment with S. pyogenes ATCC 19615 is 2 µg/mL (≈ 3.39 µM); in the experiment with K. pneumoniae ATCC 10031, more than 64 µg/mL; in the experiment with S. aureus BAA 977 iErmA, 2 µg/mL (≈ 3.39 µM); in the experiment on S. aureus ATCC 29213, 2 µg/mL (≈ 3.39 µM).

`CSC1O[C@H]([C@H](NC(=O)[C@H]2NC[C@@H]3C=C(C#Cc4ccccc4)CCO[C@@H]23)[C@H](C)Cl)C(O)[C@@H](O)[C@H]1O` (stereo partly shown) [FSA-510002]: the MIC in experiment [1] was 32 µg/mL (≈ 59.6 µM); in the experiment on E. coli ATCC 25922 (ATCC25922) it was more than 64 µg/mL; in the experiment on S. pneumoniae ATCC 49619, 0.25 µg/mL (≈ 0.465 µM); in the experiment on E. coli MP-9 ΔTolC it was more than 64 µg/mL; in the experiment with H. influenzae ATCC 49247, 32 µg/mL (≈ 59.6 µM); in the experiment with E. faecalis ATCC 29212 (ATCC29212, read-out: MIC), 2 µg/mL (≈ 3.72 µM). In addition, the MIC in the experiment on S. pyogenes ATCC 19615 was 0.25 µg/mL (≈ 0.465 µM); in the experiment with K. pneumoniae ATCC 10031 (setting [5]), 64 µg/mL (≈ 119 µM); in the experiment with S. aureus BAA 977 iErmA it was 0.25 µg/mL (≈ 0.465 µM); in the experiment on S. aureus ATCC 29213, 0.5 µg/mL (≈ 0.931 µM).

For the compound `CSC1O[C@H]([C@H](NC(=O)[C@H]2NC[C@@H]3C=C(C#Cc4cccc(F)c4)CCO[C@@H]23)[C@H](C)Cl)C(O)[C@@H](O)[C@H]1O` (stereo partly shown) [FSA-510003], the MIC in [1] was 32 µg/mL (≈ 57.7 µM); against E. coli ATCC 25922 (ATCC25922), more than 64 µg/mL; in the experiment with S. pneumoniae ATCC 49619, 0.25 µg/mL (≈ 0.45 µM); against E. coli MP-9 ΔTolC it was more than 64 µg/mL; in the experiment with H. influenzae ATCC 49247 (setting [4]) it was 16 µg/mL (≈ 28.8 µM); with E. faecalis ATCC 29212 (ATCC29212, read-out: MIC) it was 1 µg/mL (≈ 1.8 µM). The MIC with S. pyogenes ATCC 19615 is 0.25 µg/mL (≈ 0.45 µM); in the experiment with K. pneumoniae ATCC 10031 (setting [5]) it was 16 µg/mL (≈ 28.8 µM); against S. aureus BAA 977 iErmA, 0.25 µg/mL (≈ 0.45 µM); with S. aureus ATCC 29213, 0.5 µg/mL (≈ 0.901 µM).

On to `CSC1O[C@H]([C@H](NC(=O)[C@H]2NC[C@@H]3CC(c4cccc5cnccc45)=CCO[C@H]32)[C@H](C)Cl)C(O)[C@@H](O)[C@H]1O` (stereo partly shown) [FSA-510006], for which the MIC in experiment [1] is 64 µg/mL (≈ 113 µM); against E. coli ATCC 25922 (ATCC25922), more than 64 µg/mL; in the experiment on S. pneumoniae ATCC 49619, 1 µg/mL (≈ 1.77 µM); in the experiment with E. coli MP-9 ΔTolC, more than 64 µg/mL; against H. influenzae ATCC 49247, more than 64 µg/mL; in the experiment with E. faecalis ATCC 29212 (ATCC29212, read-out: MIC), 16 µg/mL (≈ 28.4 µM). In addition, the MIC in the experiment with S. pyogenes ATCC 19615 was 0.5 µg/mL (≈ 0.886 µM); in the experiment on K. pneumoniae ATCC 10031, more than 64 µg/mL; in the experiment with S. aureus BAA 977 iErmA, 16 µg/mL (≈ 28.4 µM); with S. aureus ATCC 29213, 8 µg/mL (≈ 14.2 µM).
